{"source": "paper PMC7559746", "about": "(Pharmaceutics, 2020)", "key": {"[1]": {"test": "Sorafenib concentration in 3-mm skin biopsies of patients (LC-MS/MS)", "format": "in vivo, human", "experimental": "A 3-mm skin biopsy was obtained at days 1 and 15 of the study during PK sampling days for pharmacokinetic analysis. Skin biopsies were taken from either the forearm or the shoulder region, but always from the same region at the same timepoint in an individual patient during the two consecutive PK sampling days. If patients had HFSR lesions at the hand at the first PK day, an additional skin biopsy was performed from the thenar eminence region of the hand for pathologic analysis on days 1 and 15. The biopsies were graded according to the scoring for interface dermatitis as used for graft-versus-host disease by an experienced pathologist (J.D.)."}, "[2]": {"test": "Toxicity in patients (CTCAE version 4.0, patient diaries) per study phase", "format": "in vivo, human", "text": "Toxicity was described as the incidence of toxicity per phase. This was corrected for baseline toxicity and was only taken into account in case of an increase in CTCAE grade per PK sampling day."}, "[3]": {"design": "method as in PMID 29065985", "settings": "cited from earlier work"}, "[4]": {"test": "clinical", "settings": "human, plasma, oral"}, "[5]": {"settings": "at clinically relevant doses; cited from earlier work"}, "[6]": {"settings": "plasma, relative difference of geometric means"}, "[7]": {"settings": "plasma, sorafenib monotherapy (day 1)"}}, "note": "Several values for one entry are separate records, joined by “and”; a condition that tells them apart may be missing. Equal entries are not always repeated. Where two headings read alike, the source gives them in different places.", "data": [{"smiles": "CNC(=O)c1cc(Oc2ccc(NC(=O)Nc3ccc(Cl)c(C(F)(F)F)c3)cc2)ccn1", "note": "[Sorafenib, sorafenib]", "values": [{"measurement": "Kp at 15 study day", "setting": "[1]; human, skin and plasma, oral", "result": 0.00147}, {"measurement": "RD sorafenib monotherapy vs. sorafenib + probenecid (90% CI), sorafenib concentration in keratinocytes", "setting": "[1]; skin biopsy", "result": "−28.1% (−46.3% to −3.7%)"}, {"measurement": "decrease of sorafenib concentration in skin in the presence of probenecid", "setting": "[1]; vs sorafenib alone, decrease", "result": 28.1, "unit": "%"}, {"measurement": "Anorexia, Grade 1–2, patients", "setting": "[2]; N = 16 per phase", "result": 4}, {"measurement": "Constipation, Grade 1–2, patients", "setting": "[2]; N = 16 per phase", "result": 2}, {"measurement": "Diarrhea, Grade 1–2, patients", "setting": "[2]; N = 16 per phase", "result": 1}, {"measurement": "Fatigue, Grade 1–2, patients", "setting": "[2]; N = 16 per phase", "result": 2}, {"measurement": "Fever, Grade 1–2, patients", "setting": "[2]; N = 16 per phase", "result": 1}, {"measurement": "HFSR, Grade 1–2, patients", "setting": "[2]; N = 16 per phase", "result": 3}, {"measurement": "Nausea, Grade 1–2, patients", "setting": "[2]; N = 16 per phase", "result": 1}, {"measurement": "Oral mucositis, Grade 1–2, patients", "setting": "[2]; N = 16 per phase", "result": 1}, {"measurement": "Pain, Grade 1–2, patients", "setting": "[2]; N = 16 per phase", "result": 1}, {"measurement": "Pain, Grade 3, patients", "setting": "[2]; N = 16 per phase", "result": 1}, {"measurement": "Rash, Grade 1–2, patients", "setting": "[2]; N = 16 per phase", "result": 1}, {"measurement": "Vomiting, Grade 1–2, patients", "setting": "[2]; N = 16 per phase", "result": 0}, {"measurement": "Serious adverse events (SAE)", "setting": "[2]; N = 16 per phase, assumed not related to study drugs", "result": 1}, {"measurement": "occurrence of HFSR, rash, anorexia, and fatigue", "setting": "[2]; during sorafenib monotherapy", "result": 43, "unit": "%"}, {"measurement": "patients in whom HFSR occurred", "setting": "[2]; whole study", "result": "10 of 16 patients"}, {"measurement": "clinical incidence of HFSR ≥ grade 3", "setting": "[3]", "result": 20, "unit": "%"}, {"measurement": "Cmax", "setting": "[4]", "result": 3340, "unit": "ng/mL"}, {"measurement": "Tmax", "setting": "[4]", "result": 2.2, "unit": "h"}, {"measurement": "AUC(0-t)", "setting": "[4]; 500 mg", "result": 24500, "unit": "ng·h/mL"}, {"measurement": "difference in sorafenib plasma AUC between patients with or without liver cirrhosis", "setting": "90% CI: −32.9% to 30.7%, P = 0.73", "result": "−6.3", "unit": "%"}, {"measurement": "difference in sorafenib plasma Ctrough between patients with or without liver cirrhosis", "setting": "90% CI: −46.8% to 61.3%, P = 0.81", "result": "−7.4", "unit": "%"}, {"measurement": "AUC(0-t)", "setting": "human, plasma, oral", "result": 33500, "unit": "ng·h/mL"}, {"measurement": "Cmax", "setting": "human, plasma, oral, Cmax (CV%) geomean, plasma, sorafenib monotherapy (day 1)", "result": 4460, "unit": "ng/mL"}, {"measurement": "Tmax", "setting": "human, plasma, oral, Tmax (IQR) median, plasma, sorafenib monotherapy (day 1)", "result": 3.7, "unit": "h"}, {"measurement": "RD sorafenib monotherapy vs. sorafenib + probenecid (90% CI), Cmax", "setting": "[6]", "result": "−25.1% (−44.3% to −19.7%)"}, {"measurement": "RD sorafenib monotherapy vs. sorafenib + probenecid (90% CI), Ctrough", "setting": "[6]", "result": "−26.0% (−43.4% to −3.4%)"}, {"measurement": "Ctrough (CV%) geomean", "setting": "[7]", "result": "2125.5 (60) μg/mL"}, {"measurement": "decrease of geometric mean plasma AUC0–12 h with concomitant probenecid", "setting": "vs sorafenib alone, decrease", "result": "27% and 26.8%"}, {"measurement": "decrease of plasma Cmax with concomitant probenecid", "setting": "vs sorafenib alone, decrease", "result": 25.1, "unit": "%"}, {"measurement": "decrease of plasma Ctrough with concomitant probenecid", "setting": "vs sorafenib alone, decrease", "result": 26.0, "unit": "%"}]}, {"smiles": "CCCN(CCC)S(=O)(=O)c1ccc(C(=O)O)cc1", "note": "[Probenecid, probenecid]", "values": [{"measurement": "occurrence of HFSR, rash, anorexia, and fatigue", "setting": "[2]; during probenecid administration (concomitant with sorafenib)", "result": 65, "unit": "%"}, {"measurement": "plasma concentrations achieved", "setting": "[5]", "result": "higher than 200 µM"}]}, {"smiles": "CNC(=O)c1cc(Oc2ccc(NC(=O)Nc3ccc(Cl)c(C(F)(F)F)c3)cc2)cc[n+]1[O-]", "note": "[Sorafenib-N-oxide, sorafenib-N-oxide]", "values": [{"measurement": "RD sorafenib monotherapy vs. sorafenib + probenecid (90% CI), AUC0–12 h", "setting": "[6]", "result": "−36.3% (−52.8% to −14.1%)"}, {"measurement": "RD sorafenib monotherapy vs. sorafenib + probenecid (90% CI), Cmax", "setting": "[6]", "result": "−39.2% (−54.6% to −18.7%)"}, {"measurement": "RD sorafenib monotherapy vs. sorafenib + probenecid (90% CI), Ctrough", "setting": "[6]", "result": "−35.2% (−59.7% to 4.3%)"}, {"measurement": "Cmax (CV%) geomean", "setting": "[7]", "result": "467.3 (77) μg/mL"}, {"measurement": "Ctrough (CV%) geomean", "setting": "[7]", "result": "271.1 (282) μg/mL"}, {"measurement": "decrease of geometric mean plasma AUC0–12 h with concomitant probenecid", "setting": "vs sorafenib alone, decrease", "result": 36.3, "unit": "%"}, {"measurement": "decrease of plasma Cmax with concomitant probenecid", "setting": "vs sorafenib alone, decrease", "result": 39.2, "unit": "%"}]}]}
